In test [1] the test system is THP1-Dual cells, NF-κB pathway (SEAP). Description: THP-1 Dual cell SEAP assay (L18-MDP stimulated). To be noted: Homo sapiens, 10 ng/mL L18-MDP, 20-24 h, SEAP readout, read-out: IFNγ THP1 IC50. The test is classed as cell-based. In a few lines: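 IC50 values come from non-linear fits of % inhibition of SEAP, measured as QUANTI-Blue optical density (620-655 nm, 2 h) in media-blanked supernatants. These were taken from THP1-Dual cells treated with compound for 30 min before overnight exposure to 10 ng/mL L18-MDP final at 37 °C.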

In the next test the target is T1, RIPK2 (KD)/XIAP (BIR2) (Homo sapiens, UniProt O43353).
T1 construct: made in house; host or cells: baculovirus-infected Sf9 cells
Nature of the test: RIPK2-XIAP binding competition PPI assay (TR-FRET). To be noted: for Emax: 50 nM of GSK583 = -100% activity, read-out: PPI Amax; for IC50: GST-RIPK2 / His-XIAP (BIR2)-avi, 120 min at 23° C. In a few lines:
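After 2 h at 23 °C, complex formation was read as the 665/520 nm emission ratio (337 nm excitation), scaled between uninhibited reaction and 50 nM GSK583. The mix held 1 nM human RIPK2 kinase fragment-GST, 25 nM His-tagged XIAP BIR2 and Tb/XL665 antibodies in pH 7.5 Tris buffer containing vanadate and glycerophosphate.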

T1 sequence (O43353 1-310): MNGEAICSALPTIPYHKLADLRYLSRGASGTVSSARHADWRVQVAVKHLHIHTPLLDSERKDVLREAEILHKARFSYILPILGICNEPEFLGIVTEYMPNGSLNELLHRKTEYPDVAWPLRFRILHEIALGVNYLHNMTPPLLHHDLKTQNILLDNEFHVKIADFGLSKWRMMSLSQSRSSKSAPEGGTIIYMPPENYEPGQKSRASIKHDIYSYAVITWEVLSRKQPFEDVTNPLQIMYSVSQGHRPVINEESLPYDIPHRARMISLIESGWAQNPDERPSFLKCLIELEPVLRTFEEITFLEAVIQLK

For the molecule `COc1cc2ncc(-c3cc(C(=O)NCc4cccc(F)n4)n(C)n3)n2cc1S(=O)(=O)C(C)(C)C` [Example 52, 3-(6-(tert-butylsulfonyl)-7-methoxyimidazo[1,2-a]pyridin-3-yl)-N-((6-fluoropyridin-2-yl)methyl)-1-methyl-1H-pyrazole-5-carboxamide], the IC50 (commonly the concentration at which inhibition is half-maximal) in test [1] was above 2500 nM. Also, at RIPK2 (KD)/XIAP (BIR2), the Emax is at least 80% and the IC50 was 100 to 1000 nM.

On to `COc1cc2ncc(-c3cc(C(=O)NCc4cc(F)ccn4)n(C)n3)n2cc1S(=O)(=O)C(C)(C)C` [Example 53, 3-(6-(tert-butylsulfonyl)-7-methoxyimidazo[1,2-a]pyridin-3-yl)-N-((4-fluoropyridin-2-yl)methyl)-1-methyl-1H-pyrazole-5-carboxamide], for which the IC50 in test [1] was above 2500 nM. Moreover, on RIPK2 (KD)/XIAP (BIR2), the Emax is at least 80% and the IC50 is 100 to 1000 nM.

Regarding `COc1cc2ncc(-c3cc(C(=O)NCc4ncc(F)cc4F)n(C)n3)n2cc1S(=O)(=O)C(C)(C)C` [Example 54, 3-(6-(tert-butylsulfonyl)-7-methoxyimidazo[1,2-a]pyridin-3-yl)-N-((3,5-difluoropyridin-2-yl)methyl)-1-methyl-1H-pyrazole-5-carboxamide], the IC50 in test [1] lay in the range of 500 to 2500 nM. Further, on RIPK2 (KD)/XIAP (BIR2), the Emax is at least 80% and the IC50 fell in the range of 100 to 1000 nM.

Turning to `COc1cc2ncc(-c3cc(C(=O)NC4(c5ncccn5)CC4)n(C)n3)n2cc1S(=O)(=O)C(C)(C)C` [Example 55, 3-(6-(tert-butylsulfonyl)-7-methoxyimidazo[1,2-a]pyridin-3-yl)-1-methyl-N-(1-(pyrimidin-2-yl)cyclopropyl)-1H-pyrazole-5-carboxamide], the 50% inhibitory concentration (IC50) in test [1] is above 2500 nM; on RIPK2 (KD)/XIAP (BIR2), above 1000 nM. The Emax on RIPK2 (KD)/XIAP (BIR2) was 30 to 55%.

Consider `COc1cc2ncc(-c3cc(C(=O)N[C@H](C)c4cn(C)cn4)n(C)n3)n2cc1S(=O)(=O)C(C)(C)C` [Example 56, (R)-3-(6-(tert-butylsulfonyl)-7-methoxyimidazo[1,2-a]pyridin-3-yl)-1-methyl-N-(1-(1-methyl-1H-imidazol-4-yl)ethyl)-1H-pyrazole-5-carboxamide], for which the IC50 in test [1] was above 2500 nM. Also, on RIPK2 (KD)/XIAP (BIR2), the Emax is at least 80% and the IC50 is 100 to 1000 nM.

Consider `COc1cc2ncc(-c3cc(C(=O)N[C@@H](C)c4cn(C)cn4)n(C)n3)n2cc1S(=O)(=O)C(C)(C)C` [Example 57, (S)-3-(6-(tert-butylsulfonyl)-7-methoxyimidazo[1,2-a]pyridin-3-yl)-1-methyl-N-(1-(1-methyl-1H-imidazol-4-yl)ethyl)-1H-pyrazole-5-carboxamide], for which, in test [1], the IC50 is above 2500 nM. Moreover, on RIPK2 (KD)/XIAP (BIR2), the Emax was at least 80% and the IC50 was above 1000 nM.

Take `COc1cn2ncc(-c3cc(C(=O)N[C@H](C)c4ccccn4)n(C)n3)c2cc1C1(F)CCN(C)CC1` [Example 58, (R)-3-(5-(4-fluoro-1-methylpiperidin-4-yl)-6-methoxypyrazolo[1,5-a]pyridin-3-yl)-1-methyl-N-(1-(pyridin-2-yl)ethyl)-1H-pyrazole-5-carboxamide]: the IC50 in test [1] lay within 500 to 2500 nM. Moreover, at RIPK2 (KD)/XIAP (BIR2), the Emax was at least 80% and the IC50 is 100 to 1000 nM.

On to `COc1cc2ncc(-c3cc(C(=O)N[C@H](C)c4ccn(C)n4)n(C)n3)n2cc1S(=O)(=O)C(C)(C)C` [Example 59, (R)-3-(6-(tert-butylsulfonyl)-7-methoxyimidazo[1,2-a]pyridin-3-yl)-1-methyl-N-(1-(1-methyl-1H-pyrazol-3-yl)ethyl)-1H-pyrazole-5-carboxamide], for which, in test [1], the concentration for half-maximal inhibition (IC50) was in the range of 500 to 2500 nM. Also, at RIPK2 (KD)/XIAP (BIR2), the Emax was at least 80% and the IC50 lay in the range of 100 to 1000 nM.

`COc1cc2ncc(-c3cc(C(=O)N[C@@H](C)c4ccn(C)n4)n(C)n3)n2cc1S(=O)(=O)C(C)(C)C` [Example 60, (S)-3-(6-(tert-butylsulfonyl)-7-methoxyimidazo[1,2-a]pyridin-3-yl)-1-methyl-N-(1-(1-methyl-1H-pyrazol-3-yl)ethyl)-1H-pyrazole-5-carboxamide]: the results for the IC50 (in test [1]; on RIPK2 (KD)/XIAP (BIR2)) were above 2500 nM and above 1000 nM, respectively. In addition, the Emax at RIPK2 (KD)/XIAP (BIR2) was at least 80%.

Regarding `CC[C@@H](NC(=O)c1cc(-c2cnc3cc(OC)c(S(=O)(=O)C(C)(C)C)cn23)nn1C)c1ccccn1` [Example 61, (R)-3-(6-(tert-butylsulfonyl)-7-methoxyimidazo[1,2-a]pyridin-3-yl)-1-methyl-N-(1-(pyridin-2-yl)propyl)-1H-pyrazole-5-carboxamide], the IC50 in test [1] was above 2500 nM; on RIPK2 (KD)/XIAP (BIR2), 100 to 1000 nM. Besides, the Emax at RIPK2 (KD)/XIAP (BIR2) was at least 80%.

With `COc1cc2ncc(-c3cc(C(=O)N[C@@H](c4ccccn4)C(F)(F)F)n(C)n3)n2cc1S(=O)(=O)C(C)(C)C` [Example 62, (S)-3-(6-(tert-butylsulfonyl)-7-methoxyimidazo[1,2-a]pyridin-3-yl)-1-methyl-N-(2,2,2-trifluoro-1-(pyridin-2-yl)ethyl)-1H-pyrazole-5-carboxamide], the IC50 in test [1] was in the range of 500 to 2500 nM. In addition, on RIPK2 (KD)/XIAP (BIR2), the Emax is at least 80% and the IC50 was 100 to 1000 nM.

Turning to `COc1cc2ncc(-c3cc(C(=O)N[C@@H]4CCc5cccnc54)n(C)n3)n2cc1S(=O)(=O)C(C)(C)C` [Example 63, (R)-3-(6-(tert-butylsulfonyl)-7-methoxyimidazo[1,2-a]pyridin-3-yl)-N-(6,7-dihydro-5H-cyclopenta[b]pyridin-7-yl)-1-methyl-1H-pyrazole-5-carboxamide], the half-inhibitory concentration (IC50) in test [1] was above 2500 nM. Further, on RIPK2 (KD)/XIAP (BIR2), the Emax is at least 80% and the IC50 lay in the range of 100 to 1000 nM.

On to `COc1cc2ncc(-c3cc(C(=O)N[C@H]4CCc5cccnc54)n(C)n3)n2cc1S(=O)(=O)C(C)(C)C` [Example 64, (S)-3-(6-(tert-butylsulfonyl)-7-methoxyimidazo[1,2-a]pyridin-3-yl)-N-(6,7-dihydro-5H-cyclopenta[b]pyridin-7-yl)-1-methyl-1H-pyrazole-5-carboxamide], for which the 50% inhibitory concentration (IC50) in test [1] fell in the range of 500 to 2500 nM. Moreover, at RIPK2 (KD)/XIAP (BIR2), the Emax is at least 80% and the IC50 lay in the range of 10 to 100 nM.

On to `COc1cc2ncc(-c3cc(C(=O)NCc4ncccc4C)n(C)n3)n2cc1S(=O)(=O)C(C)(C)C` [Example 65, 3-(6-(tert-butylsulfonyl)-7-methoxyimidazo[1,2-a]pyridin-3-yl)-1-methyl-N-((3-methylpyridin-2-yl)methyl)-1H-pyrazole-5-carboxamide], for which the figures for the IC50 (in test [1]; on RIPK2 (KD)/XIAP (BIR2)) were above 2500 nM and 100 to 1000 nM, respectively. The Emax on RIPK2 (KD)/XIAP (BIR2) is at least 80%.

Take `COc1cc2ncc(-c3cc(C(=O)NCc4ncccn4)n(C)n3)n2cc1S(=O)(=O)C(C)(C)C` [Example 66, 3-(6-(tert-butylsulfonyl)-7-methoxyimidazo[1,2-a]pyridin-3-yl)-1-methyl-N-(pyrimidin-2-ylmethyl)-1H-pyrazole-5-carboxamide]: the IC50 in test [1] was 500 to 2500 nM. Besides, on RIPK2 (KD)/XIAP (BIR2), the Emax was at least 80% and the IC50 lay within 100 to 1000 nM.

As for `COc1cc2ncc(-c3cc(C(=O)NCc4cnccn4)n(C)n3)n2cc1S(=O)(=O)C(C)(C)C` [Example 67, 3-(6-(tert-butylsulfonyl)-7-methoxyimidazo[1,2-a]pyridin-3-yl)-1-methyl-N-(pyrazin-2-ylmethyl)-1H-pyrazole-5-carboxamide], in test [1], the IC50 is above 2500 nM. In addition, at RIPK2 (KD)/XIAP (BIR2), the Emax was 55 to 80% and the IC50 was above 1000 nM.

`COc1cc2ncc(-c3cc(C(=O)NCc4ccncn4)n(C)n3)n2cc1S(=O)(=O)C(C)(C)C` [Example 68, 3-(6-(tert-butylsulfonyl)-7-methoxyimidazo[1,2-a]pyridin-3-yl)-1-methyl-N-(pyrimidin-4-ylmethyl)-1H-pyrazole-5-carboxamide]: in test [1], the half-inhibitory concentration (IC50) was above 2500 nM. Further, on RIPK2 (KD)/XIAP (BIR2), the Emax was at most 30% and the IC50 is above 1000 nM.

For `COc1cc2ncc(-c3cc(C(=O)NCc4cccnn4)n(C)n3)n2cc1S(=O)(=O)C(C)(C)C` [Example 69, 3-(6-(tert-butylsulfonyl)-7-methoxyimidazo[1,2-a]pyridin-3-yl)-1-methyl-N-(pyridazin-3-ylmethyl)-1H-pyrazole-5-carboxamide], the IC50 in test [1] is above 2500 nM. Further, on RIPK2 (KD)/XIAP (BIR2), the Emax was at most 30% and the IC50 was above 1000 nM.

`COc1cc2ncc(-c3cc(C(=O)NCc4ccnn4C)n(C)n3)n2cc1S(=O)(=O)C(C)(C)C` [Example 70, 3-(6-(tert-butylsulfonyl)-7-methoxyimidazo[1,2-a]pyridin-3-yl)-1-methyl-N-((1-methyl-1H-pyrazol-5-yl)methyl)-1H-pyrazole-5-carboxamide]: the IC50 in test [1] was above 2500 nM. Besides, on RIPK2 (KD)/XIAP (BIR2), the Emax was 30 to 55% and the IC50 was above 1000 nM.

For `COc1cc2ncc(-c3cc(C(=O)NCc4ncccc4Cl)n(C)n3)n2cc1S(=O)(=O)C(C)(C)C` [Example 71, 3-(6-(tert-butylsulfonyl)-7-methoxyimidazo[1,2-a]pyridin-3-yl)-N-((3-chloropyridin-2-yl)methyl)-1-methyl-1H-pyrazole-5-carboxamide], in test [1], the concentration for half-maximal inhibition (IC50) was 500 to 2500 nM. In addition, on RIPK2 (KD)/XIAP (BIR2), the Emax was at least 80% and the IC50 was in the range of 10 to 100 nM.

Regarding `COc1cc2ncc(-c3cc(C(=O)NCc4ncccc4OC)n(C)n3)n2cc1S(=O)(=O)C(C)(C)C` [Example 72, 3-(6-(tert-butylsulfonyl)-7-methoxyimidazo[1,2-a]pyridin-3-yl)-N-((3-methoxypyridin-2-yl)methyl)-1-methyl-1H-pyrazole-5-carboxamide], the IC50 in test [1] was above 2500 nM. Also, at RIPK2 (KD)/XIAP (BIR2), the Emax is at least 80% and the IC50 lay in the range of 100 to 1000 nM.

The values above are taken from US20260091026A1, “METHODS OF TREATING INFLAMMATORY DISEASES” (INTERLINE THERAPEUTICS, INC., priority 2023, published 2026).
